Test results taken from the supplement of paper PMC10307832.

How the values were obtained:
Test in all cases: relative viability (nuclei count vs DMSO), 5 days (fraction); higher = more cells survive
[1] = compound: C1/C(=C\C2=CC=CS2)/C(=O)/C(=C/C3=CC=CS3)/C1 + CS(=O)(=O)CCNCc1ccc(-c2ccc3ncnc(Nc4ccc(OCc5cccc(F)c5)c(Cl)c4)c3c2)o1 [Lapatinib] (partner 2 µM)
Outline: (§1)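 Medians of duplicate plates are given as relative viability. That measure is the nuclei count in treated wells divided by the count in vehicle wells. Counts were taken on 4× images of lung cancer cell lines in 1536-well plates, 5 days after pin-tool dosing the day after seeding with one drug alone or a fixed anchor-drug dose plus five library-drug doses (not always all listed) in √10 steps.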

[2] = compound: C1/C(=C\C2=CC=CS2)/C(=O)/C(=C/C3=CC=CS3)/C1 + CS(=O)(=O)N1CCN(Cc2cc3nc(-c4cccc5[nH]ncc45)nc(N4CCOCC4)c3s2)CC1 [Pictilisib] (partner 1 µM)
Outline: as §1

[3] = compound: C[C@]12O[C@H](C[C@]1(O)CO)n1c3ccccc3c3c4c(c5c6ccccc6n2c5c31)CNC4=O [Lestaurtinib] + CS(=O)(=O)N1CCN(Cc2cc3nc(-c4cccc5[nH]ncc45)nc(N4CCOCC4)c3s2)CC1 [Pictilisib] (partner 1 µM)
Outline: as §1

[4] = compound: C[C@]12O[C@H](C[C@]1(O)CO)n1c3ccccc3c3c4c(c5c6ccccc6n2c5c31)CNC4=O [Lestaurtinib] + Nc1ncn([C@H]2C[C@H](O)[C@@H](CO)O2)c(=O)n1 [Decitabine] (partner 2 µM)
Outline: as §1

Cell Line | relative viability ([1]; first compound 0.2 µM) | relative viability ([1]; first compound 0.6325 µM) | relative viability ([1]; first compound 2 µM) | relative viability ([1]; first compound 6.325 µM) | relative viability ([1]; first compound 20 µM) | relative viability ([2]; first compound 0.2 µM) | relative viability ([2]; first compound 0.6325 µM) | relative viability ([2]; first compound 2 µM) | relative viability ([2]; first compound 6.325 µM) | relative viability ([2]; first compound 20 µM) | relative viability ([3]; first compound 0.005 µM) | relative viability ([3]; first compound 0.01581 µM) | relative viability ([3]; first compound 0.05 µM) | relative viability ([3]; first compound 0.1581 µM) | relative viability ([3]; first compound 0.5 µM) | relative viability ([4]; first compound 0.005 µM) | relative viability ([4]; first compound 0.01581 µM) | relative viability ([4]; first compound 0.05 µM) | relative viability ([4]; first compound 0.1581 µM) | relative viability ([4]; first compound 0.5 µM)
201T | 1.01 | 1.01 | 1.14 | 0.979 | 1.05 | 0.695 | 0.688 | 0.697 | 0.607 | 0.664 | 0.677 | 0.691 | 0.64 | 0.601 | 0.533 | 0.858 | 0.93 | 0.98 | 0.934 | 0.926
A549 | 1.04 | 0.957 | 1.05 | 0.932 | 0.902 | 0.486 | 0.511 | 0.447 | – | 0.456 | 0.61 | 0.588 | 0.184 | 0.251 | 0.0856 | 0.262 | 0.253 | 0.279 | 0.318 | 0.185
A-427 | 1.09 | 1.01 | 1.01 | 1.02 | 0.982 | 0.761 | 0.82 | 0.923 | 0.706 | 0.733 | 0.769 | 0.668 | 0.461 | 0.239 | 0.101 | 0.548 | 0.544 | 0.518 | 0.347 | 0.2
ABC-1 | 1.28 | 1.09 | 1.03 | 0.971 | 1.27 | 0.896 | 0.64 | 0.882 | 0.631 | 0.658 | 0.676 | 0.747 | 0.4 | 0.596 | 0.226 | 1.31 | 1.36 | 1.12 | 0.96 | 0.66
BEN | 0.621 | 0.801 | 0.795 | 0.488 | 0.611 | 0.551 | 0.628 | 0.612 | 0.519 | 0.491 | 0.641 | 0.693 | 0.452 | 0.481 | 0.281 | 0.787 | 0.854 | 0.688 | 0.459 | 0.349
CAL-12T | 0.774 | 0.827 | 0.74 | 0.604 | 0.606 | 0.381 | 0.464 | 0.578 | 0.352 | 0.377 | 0.392 | 0.716 | 0.388 | 0.413 | 0.292 | – | – | – | – | –
COR-L23 | 0.923 | 1.02 | 0.841 | 0.859 | 0.92 | 0.765 | 0.827 | 0.922 | 0.674 | 0.892 | 0.688 | 0.723 | – | 0.332 | 0.208 | 0.487 | 0.511 | 0.384 | 0.354 | 0.153
COR-L 105 | 0.355 | 0.37 | 0.38 | 0.304 | 0.361 | 0.409 | 0.364 | 0.386 | 0.327 | 0.356 | 0.488 | 0.405 | 0.288 | 0.263 | 0.212 | 0.687 | 0.663 | 0.582 | 0.505 | 0.385
Calu-6 | 1.02 | 1.03 | 0.981 | 0.991 | 0.986 | 1.04 | 1.05 | 0.955 | 0.885 | 0.82 | 0.875 | 0.751 | 0.357 | 0.308 | 0.142 | – | – | – | – | –
ChaGo-K-1 | – | – | – | – | – | 0.653 | 0.699 | 0.756 | 0.487 | 0.538 | 0.726 | 1.15 | 0.663 | 0.421 | 0.356 | 0.553 | 0.574 | 0.51 | 0.463 | 0.461
EBC-1 | 0.19 | 0.197 | 0.237 | 0.205 | 0.221 | 0.417 | 0.39 | 0.383 | 0.391 | 0.457 | 0.427 | 0.402 | 0.35 | 0.452 | 0.21 | – | – | – | – | –
EKVX | 0.184 | 0.207 | 0.264 | 0.185 | 0.199 | 0.44 | 0.431 | 0.415 | 0.34 | 0.467 | 0.518 | 0.461 | 0.442 | 0.571 | 0.387 | 0.518 | – | 0.357 | 0.396 | 0.342
EMC-BAC-2 | 0.931 | 0.873 | 0.952 | 0.866 | 0.843 | 0.61 | 0.548 | 0.545 | 0.48 | 0.505 | 0.58 | 0.504 | 0.427 | 0.32 | 0.239 | 0.955 | 1.04 | 1.01 | 0.659 | 0.418
EPLC-272H | 1.04 | 0.952 | 1.1 | 0.889 | 0.962 | 0.33 | 0.315 | 0.396 | 0.39 | 0.306 | 0.292 | 0.318 | 0.212 | 0.286 | 0.305 | 0.334 | 0.354 | 0.327 | 0.278 | 0.3
H3255 | 0.235 | 0.296 | 0.127 | 0.227 | 0.237 | 0.545 | 0.452 | 0.467 | 0.405 | 0.506 | 0.5 | 0.393 | 0.388 | 0.277 | 0.164 | 0.792 | 0.565 | 0.562 | 0.512 | 0.366
HARA | 0.768 | 0.657 | 0.874 | 0.321 | 0.818 | 0.452 | 0.448 | 0.508 | 0.504 | 0.445 | 0.356 | 0.451 | 0.334 | 0.187 | 0.179 | 0.699 | 0.749 | 0.613 | 0.513 | 0.214
HCC-15 | 0.929 | 0.897 | 0.835 | 0.762 | 0.854 | 0.776 | 0.748 | 0.843 | 0.642 | 0.758 | 0.854 | 0.872 | 0.609 | 0.477 | 0.176 | 0.747 | 0.843 | 0.683 | 0.385 | 0.191
